For orientation: pIC50 means the negative decadic logarithm of the IC50, by convention in mol/L.

pIC50: −log10 of the molar value.

Assay [1] relates to RL95-2 cells. The assay is described as follows: Inhibition of RL95-2 cell proliferation (CellTiter-Glo). The conditions noted are these: Homo sapiens; RL95-2 cells (MSI-H), 120 hours. Type of assay: cell-based. A digest of the protocol:
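RL95-2 (MSI-H) cells, 500/well in DMEM/F12 with 10% FBS, adhered overnight, then treated 120 h at 37 °C, 5% CO2 with compound at final 1.52-10000 nM. Viability by CellTiter-Glo luminescence. Inhibition relative to 0.1% DMSO control; IC50 from nonlinear regression of log concentration versus inhibition.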
A general note: In ATP-based viability assays light output follows the ATP content of the culture.

For assay [2], the target named is T1, recombinant human WRN (Homo sapiens, UniProt Q14191).
T1 construct: purchased BPS 101264
T1 sequence (Q14191 whole entry): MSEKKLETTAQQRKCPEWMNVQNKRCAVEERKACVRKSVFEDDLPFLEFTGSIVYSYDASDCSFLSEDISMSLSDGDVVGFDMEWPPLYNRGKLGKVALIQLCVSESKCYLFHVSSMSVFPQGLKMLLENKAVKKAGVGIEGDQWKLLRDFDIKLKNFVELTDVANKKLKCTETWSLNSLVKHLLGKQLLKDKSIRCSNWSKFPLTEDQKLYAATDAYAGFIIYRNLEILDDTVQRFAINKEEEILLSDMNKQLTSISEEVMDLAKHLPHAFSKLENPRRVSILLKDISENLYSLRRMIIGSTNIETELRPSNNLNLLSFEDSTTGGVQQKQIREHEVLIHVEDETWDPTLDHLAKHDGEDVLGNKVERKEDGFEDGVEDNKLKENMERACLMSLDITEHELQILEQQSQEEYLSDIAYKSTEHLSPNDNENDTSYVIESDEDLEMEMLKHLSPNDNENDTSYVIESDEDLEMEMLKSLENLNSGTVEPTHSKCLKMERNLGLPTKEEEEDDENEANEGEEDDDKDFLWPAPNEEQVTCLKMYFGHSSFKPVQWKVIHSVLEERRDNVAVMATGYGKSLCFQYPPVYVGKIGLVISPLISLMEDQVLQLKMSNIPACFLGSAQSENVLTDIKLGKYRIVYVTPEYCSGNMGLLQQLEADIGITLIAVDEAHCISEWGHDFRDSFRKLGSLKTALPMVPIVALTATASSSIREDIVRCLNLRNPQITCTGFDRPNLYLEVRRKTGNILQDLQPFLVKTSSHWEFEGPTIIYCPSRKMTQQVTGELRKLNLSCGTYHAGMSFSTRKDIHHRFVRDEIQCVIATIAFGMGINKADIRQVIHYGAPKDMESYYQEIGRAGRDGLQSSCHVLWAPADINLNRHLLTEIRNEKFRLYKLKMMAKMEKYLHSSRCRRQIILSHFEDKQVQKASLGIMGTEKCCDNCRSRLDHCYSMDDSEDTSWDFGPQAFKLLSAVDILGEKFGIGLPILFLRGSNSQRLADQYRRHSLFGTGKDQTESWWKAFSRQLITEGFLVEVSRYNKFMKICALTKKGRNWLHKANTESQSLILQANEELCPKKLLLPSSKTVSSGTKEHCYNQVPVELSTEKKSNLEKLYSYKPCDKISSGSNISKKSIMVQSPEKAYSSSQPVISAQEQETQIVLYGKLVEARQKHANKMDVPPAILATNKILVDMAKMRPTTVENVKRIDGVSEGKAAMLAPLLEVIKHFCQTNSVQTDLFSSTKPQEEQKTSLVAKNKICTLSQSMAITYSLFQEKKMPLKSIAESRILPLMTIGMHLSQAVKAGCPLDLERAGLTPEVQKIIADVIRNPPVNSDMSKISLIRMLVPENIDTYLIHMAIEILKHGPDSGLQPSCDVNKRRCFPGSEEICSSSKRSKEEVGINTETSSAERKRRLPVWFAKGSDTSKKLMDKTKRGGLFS
In words: Inhibition of WRN enzyme activity (ATPase), ADP-Glo Kinase Assay. Type of assay: biochemical. The following applies: WRN protein 5 nM, Flap 0.1 nM, ATP 30 µM; read-out: IC50. In short, it runs like this:
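Recombinant human WRN (5 nM) was preincubated with compound (1000–0.004 nM) for 15 min at room temperature. Flap26 5'-flap DNA (0.1 nM) and 30 µM ATP were then added for 10 min in Tris pH 7.5, MgCl2, NaCl, BSA, Pluronic buffer. ADP was detected by ADP-Glo luminescence, and IC50 was obtained by nonlinear regression versus a 0.1% DMSO control.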
In general terms: ADP-Glo turns the ADP formed in a reaction into a luminescent signal.

The test system of assay [3] is SW48 cells. The assay is described as follows: Inhibition of SW48 cell proliferation (CellTiter-Glo). The class given is cell-based. The following applies: Homo sapiens; SW48 cells (MSI-H), 120 hours. The protocol: The following method was used to determine the effect of the compounds of the present disclosure on SW48 cell proliferation. SW48 cells (MSI-H cells) were purchased from American ATCC cell bank and cultured in Leibovitz's L-15 medium (Gibco, catalog No. 11415064) containing 10% fetal bovine serum, 100 U penicillin, and 100 µg/mL streptomycin. Cell viability was determined by CellTiter-Glo® Luminescent Cell Viability Assay kit (Promega, catalog No. G7573).
The experiment was performed according to the steps of the kit manual, which is briefly described as follows: test compounds were first dissolved in DMSO to prepare 10 mM stock solutions, and then diluted with medium to prepare test samples, with final compound concentrations ranging from 10000 nM to 1.52 nM. Cells in logarithmic growth phase were seeded into 96-well cell culture plates at a density of 500 cells per well and cultured overnight at 37 °C in an air incubator, then test compounds were added and cultivation continued for 120 hours. After the cultivation was completed, 40 µL of CellTiter-Glo detection reagent was added to each well, shaken for 5 minutes, and then left to stand for 10 minutes. Luminescence values of each well were read on a microplate reader using Luminescence mode. The percentage inhibition at each concentration point was calculated by comparison with the control group (0.1% DMSO), and then IC50 values for the compounds for inhibition of cell proliferation were obtained using nonlinear regression analysis of compound concentration logarithm versus inhibition rate in GraphPad Prism 9 software, as shown in Table 2.
The IC50 value results of the compounds of the present disclosure are represented by A, wherein "A" indicates 1 nM < IC50 ≤ 100 nM. Table 2 IC50 data for inhibition of SW48 cell proliferation by the compounds of the present disclosure

Regarding `CCc1c(N2CCN(C(=O)c3ncnc(C)c3O)CC2)c(=O)n2nc(C=C3CCC3)nc2n1CC(=O)Nc1ccc(S(F)(F)(F)(F)F)cc1` [Example 53, 2-(2-(cyclobutylidenemethyl)-5-ethyl-6-(4-(5-hydroxy-6-methylpyrimidine-4-carbonyl)piperazin-1-yl)-7-oxo-[1,2,4]triazolo[1,5-a]pyrimidin-4(7H)-yl)-N-(4-(pentafluoro-λ^6-sulfaneyl)phenyl)ace tamide], the pIC50 in assay [1], in assay [2] and in assay [3] was 7.00 to 9.00 throughout.

Consider `CCc1c(N2CCN(C(=O)c3ncnc(C)c3O)CC2)c(=O)n2nc(-c3ccc4sccc4c3)nc2n1CC(=O)Nc1ccc(C(F)(F)F)cc1Cl` [Example 54, 2-(2-(benzo[b]thiophen-5-yl)-5-ethyl-6-(4-(5-hydroxy-6-methylpyrimidine-4-carbonyl)piperazin-1-yl)-7-oxo-[1,2,4]triazolo[1,5-a]pyrimidin-4(7H)-yl)-N-(2-chloro-4-(trifluoromethyl)phenyl)acet amide], for which the pIC50 in assay [1], in assay [2] and in assay [3] was 7.00 to 9.00 in each case.

Regarding `CCc1c(N2CCN(C(=O)c3ncnc(C)c3O)CC2)c(=O)n2nc(-c3ccc4ccsc4c3)nc2n1CC(=O)Nc1ccc(C(F)(F)F)cc1Cl` [Example 55, 2-(2-(benzo[b]thiophen-6-yl)-5-ethyl-6-(4-(5-hydroxy-6-methylpyrimidine-4-carbonyl)piperazin-1-yl)-7-oxo-[1,2,4]triazolo[1,5-a]pyrimidin-4(7H)-yl)-N-(2-chloro-4-(trifluoromethyl)phenyl)acet amide], the pIC50 in assay [1], in assay [2] and in assay [3] was 7.00 to 9.00 each time.

In the case of `CCc1c(N2CCN(C(=O)c3ncnc(C)c3O)CC2)c(=O)n2nc(C3=CCCCOC3)nc2n1CC(=O)Nc1ccc(S(F)(F)(F)(F)F)cc1Cl` [Example 84, N-(2-chloro-4-(pentafluoro-λ^6-sulfaneyl)phenyl)-2-(5-ethyl-6-(4-(5-hydroxy-6-methylpyrimidine-4-carbonyl)piperazin-1-yl)-7-oxo-2-(2,5,6,7-tetrahydrooxepin-3-yl)-[1,2,4]triazolo[1,5-a]pyrimidin-4(7H)-yl)acetamide], the pIC50 in assay [1], in assay [2] and in assay [3] was 7.00 to 9.00 each time.

As to `CCc1c(N2CCN(C(=O)c3ncnc(C)c3O)CC2)c(=O)n2nc(-c3ccc4occc4c3)nc2n1CC(=O)Nc1ccc(S(F)(F)(F)(F)F)cc1Cl` [Example 85, 2-(2-(Benzofuran-5-yl)-5-ethyl-6-(4-(5-hydroxy-6-methylpyrimidine-4-carbonyl)piperazin-1-yl)-7-oxo-[1,2,4]triazolo[1,5-a]pyrimidin-4(7H)-yl)-N-(2-chloro-4-(pentafluoro-λ^6-sulfaneyl)phenyl) acetamide], the negative-log IC50 (pIC50) in assay [1], in assay [2] and in assay [3] was 7.00 to 9.00 each time.

Consider `CCc1c(N2CCN(C(=O)c3ncnc(C)c3O)CC2)c(=O)n2nc(-c3ccc4c(c3)CCO4)nc2n1CC(=O)Nc1ccc(S(F)(F)(F)(F)F)cc1` [Example 86, 2-(2-(2,3-dihydrobenzofuran-5-yl)-5-ethyl-6-(4-(5-hydroxy-6-methylpyrimidine-4-carbonyl)piperazin-1-yl)-7-oxo-[1,2,4]triazolo[1,5-a]pyrimidin-4(7H)-yl)-N-(4-(pentafluoro-λ^6-sulfaneyl)phenyl)acetamide], for which the negative-log IC50 (pIC50) in assay [1], in assay [2] and in assay [3] was 7.00 to 9.00 each time.

Consider `CCc1c(N2CCN(C(=O)c3ncnc(C)c3O)CC2)c(=O)n2nc(-c3ccc4c(c3)CCO4)nc2n1CC(=O)Nc1ccc(S(F)(F)(F)(F)F)cc1C` [Example 88, 2-(2-(2,3-dihydrobenzofuran-5-yl)-5-ethyl-6-(4-(5-hydroxy-6-methylpyrimidine-4-carbonyl)piperazin-1-yl)-7-oxo-[1,2,4]triazolo[1,5-a]pyrimidin-4(7H)-yl)-N-(2-methyl-4-(pentafluoro-λ^6-sulfaneyl)phenyl)acetamide], for which the pIC50 in assay [1], in assay [2] and in assay [3] was 7.00 to 9.00 each time.

On to `CCc1c(N2CCN(C(=O)c3ncnc(C)c3O)CC2)c(=O)n2nc(-c3cc4ccccc4s3)nc2n1CC(=O)Nc1ccc(S(F)(F)(F)(F)F)cc1` [Example 98, 2-(2-(benzo[b]thiophen-2-yl)-5-ethyl-6-(4-(5-hydroxy-6-methylpyrimidine-4-carbonyl)piperazin-1-yl)-7-oxo-[1,2,4]triazolo[1,5-a]pyrimidin-4(7H)-yl)-N-(4-(pentafluoro-λ^6-sulfaneyl)phenyl)acet amide], for which the pIC50 in assay [1], in assay [2] and in assay [3] was 7.00 to 9.00 each time.

Regarding `CCc1c(N2CCN(C(=O)c3ncnc(C)c3O)CC2)c(=O)n2nc(-c3ccc4nn(C)cc4c3)nc2n1CC(=O)Nc1ccc(C(F)(F)F)cc1Cl` [Example 99, N-(2-Chloro-4-(trifluoromethyl)phenyl)-2-(5-ethyl-6-(4-(5-hydroxy-6-methylpyrimidine-4-carbonyl)piperazin-1-yl)-2-(2-methyl-2H-indazol-5-yl)-7-oxo-[1,2,4]triazolo[1,5-a]pyrimidin-4(7H)-yl)acetamide], the pIC50 in assay [1], in assay [2] and in assay [3] was 7.00 to 9.00 in each case.

As for `CCc1c(N2CCN(C(=O)c3ncnc(C)c3O)CC2)c(=O)n2nc(-c3cnc4[nH]ccc4c3)nc2n1CC(=O)Nc1ccc(C(F)(F)F)cc1Cl` [Example 101, N-(2-chloro-4-(trifluoromethyl)phenyl)-2-(5-ethyl-6-(4-(5-hydroxy-6-methylpyrimidine-4-carbonyl)piperazin-1-yl)-7-oxo-2-(1H-pyrrolo[2,3-b]pyridin-5-yl)-[1,2,4]triazolo[1,5-a]pyrimidin-4(7H) -yl)acetamide], the pIC50 in assay [1] was 7.00 to 9.00; in assay [2] it was greater than 9.00; in assay [3], 7.00 to 9.00.

Regarding `CCc1c(N2CCN(C(=O)c3ncnc(C)c3O)CC2)c(=O)n2nc(-c3ccc4[nH]ccc4c3)nc2n1CC(=O)Nc1ccc(C(F)(F)F)cc1Cl` [Example 102, N-(2-chloro-4-(trifluoromethyl)phenyl)-2-(5-ethyl-6-(4-(5-hydroxy-6-methylpyrimidine-4-carbonyl)piperazin-1-yl)-2-(1H-indol-5-yl)-7-oxo-[1,2,4]triazolo[1,5-a]pyrimidin-4(7H)-yl)acetamide], the pIC50 in assay [1], in assay [2] and in assay [3] was 7.00 to 9.00 in each case.

As to `CCc1c(N2CCN(C(=O)c3ncnc(C)c3O)CC2)c(=O)n2nc(-c3ccc4n[nH]cc4c3)nc2n1CC(=O)Nc1ccc(C(F)(F)F)cc1Cl` [Example 112, N-(2-chloro-4-(trifluoromethyl)phenyl)-2-(5-ethyl-6-(4-(5-hydroxy-6-methylpyrimidine-4-carbonyl)piperazin-1-yl)-2-(1H-indazol-5-yl)-7-oxo-[1,2,4]triazolo[1,5-a]pyrimidin-4(7H)-yl)acetamide], the negative-log IC50 (pIC50) in assay [1], in assay [2] and in assay [3] was 7.00 to 9.00 each time.

In the case of `CCc1c(N2CCN(C(=O)c3ncnc(C)c3O)CC2)c(=O)n2nc(-c3ccc4c(cnn4C)c3)nc2n1CC(=O)Nc1ccc(C(F)(F)F)cc1Cl` [Example 113, N-(2-chloro-4-(trifluoromethyl)phenyl)-2-(5-ethyl-6-(4-(5-hydroxy-6-methylpyrimidine-4-carbonyl)piperazin-1-yl)-2-(1-methyl-1H-indazol-5-yl)-7-oxo-[1,2,4]triazolo[1,5-a]pyrimidin-4(7H)-yl) acetamide], the pIC50 in assay [1], in assay [2] and in assay [3] was 7.00 to 9.00 each time.

Consider `CCc1c(N2CCN(C(=O)c3ncnc(C)c3O)CC2)c(=O)n2nc(C3=CC4CCC3C4)nc2n1CC(=O)Nc1ccc(S(F)(F)(F)(F)F)cc1` (stereo not drawn) [Example 118, 2-(2-(bicyclo[2.2.1]hept-2-en-2-yl)-5-ethyl-6-(4-(5-hydroxy-6-methylpyrimidine-4-carbonyl)piperazin-1-yl)-7-oxo-[1,2,4]triazolo[1,5-a]pyrimidin-4(7H)-yl)-N-(4-(pentafluoro-λ^6-sulfaneyl)phenyl)acetamide], for which the pIC50 in assay [1], in assay [2] and in assay [3] was 7.00 to 9.00 each time.

Source of the values: EP4800015A1, “AZABICYCLO DERIVATIVE AND PREPARATION METHOD THEREFOR, AND USE” (Zhejiang Hisun Pharmaceutical Co., Ltd., priority 2023, dated 2025).
